Paper PMC11926880, “Procognitive Potential of Neuroprotective Triazine 5-HT6 Receptor Antagonists Tested on Chronic Activity In Vivo in Rats: Computer-Aided Insight into the Role of Chalcogen-Differences on the Pharmacological Profile” (ACS Chemical Neuroscience, 2025)
Where two headings read alike, the source gives them in different places.

Key:
SH-SY5Y cells = assay: ROS assay (2',7'DCFH2-DA), rotenone-induced neurotoxicity; format: cell-based, human
Method: The ROS measurement was assayed by 2′,7′-dichlorofluorescin diacetate (2′, 7′DCFH2-DA, Sigma, no. D6883). The protocol was previously described in detail.[10] […] The following day, all treatments were carried out with warmed HBSS containing 25 mM HEPES (hereafter referred to as HBSS), and during the operational steps, the cells were kept at 37 °C to minimize temperature stress.

[1] = pharmacokinetics in serum after single i.p. administration; format: in vivo, rat; conditions: for Vd/F: read-out: Vz/F; for half-life: read-out: t1/2λz
Method: Standard laboratory food (LSM-B) and filtered water as well as environment enrichment were freely available. Animals were randomly divided into treatment groups using a computer-based random order generator. All of the experiments were performed by two observers unaware of the treatment applied between 9:00 and 14:00 on separate groups of animals.
Rats were injected with the investigated compounds once (in pharmacokinetic studies) and for 21 days (in behavioral studies), and afterward, behavioral tests were conducted and tissue collection was done, as required. For pharmacokinetic studies, animals were fasted prior to dosing by withholding food but not water overnight. After dosing, the food was withheld for an additional 8 h. All animals were used only once. Animals were handled every day and weighed every other day in the chronic part of the experiment. Procedures involving animals and their care were conducted in accordance with current European Community and Polish legislations on animal experimentation. Additionally, all efforts were made to minimize animals’ suffering and to use only the number of animals necessary to produce reliable scientific data. […] The research program complies with the commonly accepted ‘3Rs’ (replacement and reduction of animals, refinement of experimental conditions, and procedures to minimize the harm to animals).
Moreover, five tissues (i.e., brain, heart, lungs, kidneys, and liver) were harvested and rinsed with cold saline. Blood was allowed to clot at room temperature for 15–20 min and then centrifuged (3000 rpm for 10 min). The obtained serum and tissues were stored at −80 °C until analysis.
Peak areas were integrated automatically using an EZChrome Elite v. 3.3.2 software (VWR, Darmstadt, Germany) chromatographic workstation.
The mobile phase consisting of methanol −10 mM potassium dihydrogen phosphate buffer (pH 4.6) and acetonitrile (51:40:9, v/v/v) was passed under vacuum through a 0.22 μm filter membrane.
Before analysis, tissue samples were thawed, weighed (200–250 mg), and placed in 5 mL plastic tubes with four volumes (w/v) of PBS (pH 7.4) and homogenized individually using a MICCRA D-1 homogenizer (ART Prozess & Labortechnik GmbH & Co., Germany). Serum (500 μL) or homogenate samples (500 μL) were mixed with an IS solution ((RS)-4-(4-methylpiperazin-1-yl)-6-(1-phenoxypropyl)-1,3,5-triazin-2-amine), 50 ng/mL in methanol. The samples were alkalized with 50 μL of 4 M sodium hydroxide solution, vortex-mixed, and extracted with 1 mL of ethyl acetate/hexane (30/70, v/v) mixture on a shaker (VXR Vibrax, IKA, Germany) for 20 min. After centrifugation (Eppendorf, Mini Spin Plus, Bionovo, Poland), the organic layers were transferred into new Eppendorf tubes containing 100 μL of methanol and 0.1 M sulfuric acid (10/90, v/v) mixture. Then, the samples were shaken and centrifuged again. Finally, 60–90 μL of each acidic layer was injected into the HPLC system.
The method was validated according to the procedures and acceptance criteria recommended for bioanalytical method validation for pharmacokinetic studies.[45]
The serum concentration–time data were analyzed by a noncompartmental method using the WinNonlin 8.2 nonlinear least-squares regression program (Pharsight Corporation, a Certara Company, Princeton, NJ, USA) to obtain pharmacokinetic parameters. […] The area under the serum concentration–time curve from time zero to time t (AUC0–t), where t is the time of the last measurable sample, was calculated according to the linear trapezoidal rule. The AUC from time zero to infinity (AUC0–∞) was estimated as AUC0–t + Ct/λz, where Ct was the serum concentration of the last measurable sample. The clearance (CL/F) was calculated as D/AUC0–∞, and the volume of distribution based on the terminal phase (Vz/F) was estimated as D/(λz·AUC0–∞), where F is the bioavailability of intraperitoneal administration.

[2] = parameters: method as in PMID 38190615, PMID 35228010; conditions: LC/MS after biotransformation in rLMs; cited from earlier work
5-HT7R = conditions: read-out: radioligand binding assay Ki; cloned receptors; cited from earlier work
[3] = 1.0 mg/kg i.p., single, 1 mg/kg
[4] = male, Wistar, rat, ip, 0.3 mg/kg i.p., single
[5] = male, Wistar, rat, ip, 0.3 mg/kg, 0.3 mg/kg i.p., single
[6] = male, Wistar, rat, ip, 1.0 mg/kg i.p., single
[7] = male, Wistar, rat, ip, 1 mg/kg, 1.0 mg/kg i.p., single

Structure (SMILES): CN1CCN(c2nc(N)nc(C(C)(C)Sc3ccc4ccccc4c3)n2)CC1 [WA-22, 4-(4-methylpiperazin-1-yl)-6-(2-(naphthalen-2-ylthio)propan-2-yl)-1,3,5-triazin-2-amine]
- ROS level (Ctr set as 100%) (SH-SY5Y cells; compound 10 μM pretreatment 1 h, then ROT 32.5 μM 3 h): 128%
- effect on ROS of compound alone (SH-SY5Y cells; without ROT): did not exert any effect
- Cmax after 1.0 mg/kg i.p. in relation to 0.3 mg/kg i.p. [1]: 3.8 fold
- Cmax ([1]; 0.3 mg/kg i.p., single, 0.3 mg/kg): 18.65 ± 1.87 ng/mL
- Cmax [1, 3]: 71.05 ± 26.52 ng/mL
- Vz/F [1, 3]: 75.43 ± 28.17 L/kg
- t1/2λz [1, 3]: 2.8115 ± 0.7785 h
- AUC(0-t) [1, 4]: 14 ng·h/mL
- CL/F [1, 4]: 255 mL/min/kg
- MRT [1, 4]: 1.61 h
- Tmax [1, 4]: 5 min
- Cmax ([1]; male, Wistar, rat, ip, 0.3 mg/kg, 0.3 mg/kg i.p., single, read-out: Cmax): 18.7 ng/mL
- Vd/F [1, 5]: 28.1 ± 6.41 L/kg
- half-life [1, 5]: 1.29 ± 0.349 h
- AUC(0-inf) ([1]; male, Wistar, rat, ip, 1 mg/kg i.p., single): 55.9 ng·h/mL
- AUC(0-t) [1, 6]: 42.3 ng·h/mL
- CL/F [1, 6]: 313 mL/min/kg
- MRT [1, 6]: 2.7 h
- Tmax [1, 6]: 5 min
- Cmax ([1]; male, Wistar, rat, ip, 1 mg/kg, 1.0 mg/kg i.p., single, read-out: Cmax): 71.1 ng/mL
- Vd/F [1, 7]: 75.4 L/kg
- half-life [1, 7]: 2.81 h
- metabolic stability, % of remaining structure [2]: 74%
- Ki (5-HT7R): 607 nM
